Laboratory results taken from PMC9572513, “Novel Unsymmetric 3,5-Bis(benzylidene)-4-piperidones That Display Tumor-Selective Toxicity” (Molecules, 2022).
Counter-ions that a name gives are not always drawn. Like-named read-outs stand apart in the source and are kept apart here.

Key:
[1] = test system: HCT116 colon cancer cells; experiment: Cytotoxicity against HCT116 colon cancer cells; type: cell-based, human; settings: for IC50: Homo sapiens, HCT-116, 48 h, 48 h; for HCT116 SI (selectivity index): IC50 CRL1790 / IC50 HCT116
Experimental: (§1) The culture medium was supplemented with 10% heat-inactivated fetal bovine serum (FBS) and 1% penicillin–streptomycin antibiotics. The time of the bioassays was 48 h. The determinations were undertaken in triplicate on three different occasions.

HT29 colon cancer cells = experiment: Cytotoxicity against HT29 colon cancer cells; type: cell-based, human; settings: for IC50: 48 h; for HT29 SI (selectivity index): IC50 CRL1790 / IC50 HT29
Experimental: as §1

[2] = test system: CRL1790 non-malignant colon cells; experiment: Cytotoxicity against CRL1790 non-malignant colon cells; type: cell-based; settings: Homo sapiens, 48 h
Experimental: as §1

[3] = test system: HCT116 and HT29 colon cancer cells; experiment: Average over HCT116 and HT29 colon cancer cells; type: cell-based, human; settings: for IC50: Homo sapiens, average of HCT116 and HT29, unit printed only for the single cell-line columns; for Average SI: average of SI for HCT116 and HT29; for PSE (potency-selectivity expression): reciprocal of average IC50 x average SI x 100, colon cells
Experimental: as §1

[4] = test system: Ca9-22 squamous cell carcinoma cells; experiment: MTT cytotoxicity against Ca9-22 squamous cell carcinoma; type: cell-based, human; settings: for CC50: Homo sapiens, read-out: Ca9-22 CC50; for Ca9-22 SI: average CC50 HGF/HPLF/HPC divided by CC50 Ca9-22
Experimental: (§2) The method for evaluating 2a–f and 3a–e against human oral squamous cell carcinoma (OSCC) cell lines (Ca9-22, HSC-2, HSC-3, HSC-4) and human non-malignant oral cells [human gingival fibroblast (HGF), human periodontal ligament fibroblast (HPLF), and human pulp cell (HPC)] have been reported previously, except the length of time of this bioassay was extended from 24 h to 48 h. In brief, different quantities of the compounds were incubated with the cells in Dulbecco’s modified eagle medium (DMEM), which was supplemented with 10% FBS and antibiotics. The cell viability was determined by the 3-(4,5-dimethylthiazol-2-yl)-2,5-diphenyl-2H-tetrazolium bromide (MTT) method as summarized previously (Figure 4).

[5] = test system: HSC-2 squamous cell carcinoma cells; experiment: MTT cytotoxicity against HSC-2 squamous cell carcinoma; type: cell-based, human; settings: for CC50: Homo sapiens, read-out: HSC-2 CC50; for HSC-2 SI: average CC50 HGF/HPLF/HPC divided by CC50 HSC-2
Experimental: as §2

[6] = test system: HSC-3 squamous cell carcinoma cells; experiment: MTT cytotoxicity against HSC-3 squamous cell carcinoma; type: cell-based, human; settings: for CC50: Homo sapiens, read-out: HSC-3 CC50; for HSC-3 SI: average CC50 HGF/HPLF/HPC divided by CC50 HSC-3
Experimental: as §2

[7] = test system: HSC-4 squamous cell carcinoma cells; experiment: MTT cytotoxicity against HSC-4 squamous cell carcinoma; type: cell-based, human; settings: for CC50: Homo sapiens, read-out: HSC-4 CC50; for HSC-4 SI: average CC50 HGF/HPLF/HPC divided by CC50 HSC-4
Experimental: as §2

[8] = test system: Ca9-22, HSC-2, HSC-3, and HSC-4 squamous cell carcinoma cell lines; experiment: Average over Ca9-22, HSC-2, HSC-3 and HSC-4 OSCC cell lines; type: cell-based, human; settings: for CC50: read-out: Average CC50; for Average SI: average of SI for four OSCC cell lines
Experimental: as §2

[9] = MTT cytotoxicity against human gingival fibroblast (HGF); type: cell-based; settings: human, human gingival fibroblasts (HGF), non-malignant oral cells
Experimental: as §2

[10] = MTT cytotoxicity against human periodontal ligament fibroblast (HPLF); type: cell-based; settings: human, human periodontal ligament fibroblasts (HPLF), non-malignant oral cells
Experimental: as §2

[11] = MTT cytotoxicity against human pulp cell (HPC); type: cell-based; settings: human, human pulp cells (HPC), non-malignant oral cells
Experimental: as §2

[12] = Average over HGF, HPLF and HPC non-malignant oral cells; type: cell-based, human; settings: human, HPLF and HPC non-malignant oral cells (average), average of HGF
Experimental: as §2

CEM cells = experiment: Differential DNA staining (DNS) cytotoxicity assay, CEM cells; type: cell-based; settings: Homo sapiens, CCRF-CEM
Experimental: (§3) The method used for generating the data of human acute lymphocytic leukemia (CEM) and human acute promyelocytic leukemia (HL-60) cells in Table 4 has been described previously. In brief, the cells were cultured in media supplemented with 10% FBS and antibiotics. […] The CC50 values of the compounds listed in Table 4 were obtained by linear interpolation equations [28, 29].

HL-60 cells = experiment: Differential DNA staining (DNS) cytotoxicity assay, HL-60 cells; type: cell-based; settings: Homo sapiens
Experimental: as §3

[13] = Homo sapiens, average of four OSCC cell lines

Compound | IC50 (HT29 colon cancer cells; Homo sapiens, HT-29, 48 h) [µM] | HT29 SI (selectivity index) (HT29 colon cancer cells) | IC50 [2] [µM] | IC50 [3] [µM] | Average SI [3] | PSE (potency-selectivity expression) [3] | CC50 ([4]; Ca9-22, 48 h, MTT) [µM] | Ca9-22 SI [4] | CC50 ([5]; HSC-2, 48 h, MTT) [µM] | HSC-2 SI [5] | CC50 ([6]; HSC-3, 48 h, MTT) [µM] | HSC-3 SI [6] | CC50 ([7]; HSC-4, 48 h, MTT) [µM] | HSC-4 SI [7] | CC50 [8, 13] [µM] | Average SI [8] | CC50 at 48 h [9] [µM] | CC50 at 48 h [10] [µM] | CC50 at 48 h [11] [µM] | CC50 at 48 h [12] [µM] | also measured
COc1ccc(/C=C2\CNC/C(=C\c3ccc(O)c(CN4CCCC4)c3)C2=O)cc1OC [Compound 2c, 3-[3-(1-Pyrrolidinylmethyl)-4-hydroxybenzylidene]-5-(3,4-dimethoxybenzylidene)-4-piperidone dihydrochloride] | 1.57 ± 0.54 | 16.8 | 26.4 ± 0.28 | 2.51 | 12.2 | 486 | 8.2 | 6.54 | 14 | 3.83 | 11.7 | 4.58 | 14.1 | 3.80 | 12 | 4.69 | 68.6 | 48.9 | 43.3 | 53.6 | IC50 [1]: 3.44 ± 0.42 µM; HCT116 SI (selectivity index) [1]: 7.67; CC50 (CEM cells; 24 h, read-out: CC50 CEM Cells 24 h): > 10 µM; CC50 (CEM cells; 48 h, read-out: CC50 CEM Cells 48 h): 7.92 ± 0.98 µM; CC50 (HL-60 cells; HL-60, 24 h, read-out: CC50 HL-60 Cells 24 h): > 10 µM; CC50 (HL-60 cells; HL-60, 48 h, read-out: CC50 HL-60 Cells 48 h): > 10 µM
COc1ccc(/C=C2\CNC/C(=C\c3ccc(O)c(CN4CCCCC4)c3)C2=O)cc1OC [Compound 2d, 3-[3-(1-Piperidinylmethyl)-4-hydroxybenzylidene]-5-(3,4-dimethoxybenzylidene)-4-piperidone dihydrochloride] | < 1 | 43.5 | 23.5 ± 0.26 | 0.5 | 47.9 | 9580 | 0.42 | <8.98 | 0.61 | <6.18 | 0.39 | <9.67 | 0.75 |  | < 1 | 7.47 | 7 | 2.7 | < 1.6 | < 3.77 | IC50 (HT29 colon cancer cells): 0.54 ± 0.17 µM; CC50 ([8]; average of four OSCC cell lines): 0.54 µM; PSE (potency-selectivity expression) ([8]; reciprocal of average CC50 (OSCC) x average SI x 100): > 1000
COc1ccc(/C=C2\CNC/C(=C\c3ccc(O)c(CN4CCOCC4)c3)C2=O)cc1OC [Compound 2e, 3-[3-(4-Morpholinomethyl)-4-hydroxybenzylidene]-5-(3,4-dimethoxybenzylidene)-4-piperidone dihydrochloride] | 3.75 ± 0.78 | 7.31 | 27.4 ± 0.42 | 3.56 | 7.72 | 217 | 41.8 | >4.79 | 88.5 | >2.26 | 73.2 | >2.73 |  |  | 69.3 | 3.12 | > 200 | > 200 | > 200 | > 200 | IC50 [1]: 3.37 ± 0.68 µM; HCT116 SI (selectivity index) [1]: 8.13
COc1ccc(/C=C2\CNC/C(=C\c3ccc(O)c(CN4CCN(C)CC4)c3)C2=O)cc1 [Compound 3c] | 0.76 ± 0.26 | 17.4 | 13.2 ± 0.36 | 0.9 | 15.1 | 1678 | 0.66 | 8.33 | 1.1 | 5.00 | 1.05 | 5.24 | 1.18 | 4.66 | 1 | 5.81 | 8.8 | 4.9 | 2.8 | 5.5 | IC50 [1]: 1.04 ± 0.48 µM; HCT116 SI (selectivity index) [1]: 12.7
Cc1ccc(/C=C2\CNC/C(=C\c3ccc(O)c(CN4CCN(C)CC4)c3)C2=O)cc1 [Compound 3d] | 0.71 ± 0.29 | 31.8 | 22.6 ± 0.59 | 2.31 | 18.8 | 814 | 1.3 | 7.85 | 2.2 | 4.64 | 1.91 | 5.34 | 2.29 | 4.45 | 1.93 | 5.57 | 14.6 | 10.1 | 6 | 10.2 | IC50 [1]: 3.91 ± 1.69 µM; HCT116 SI (selectivity index) [1]: 5.78
O=c1[nH]cc(F)c(=O)[nH]1 [Compound 5-FU, 5-fluorouracil, reference compound] | 14.4 ± 0.65 | 1.22 | 17.6 ± 0.82 | 8.97 | 3.10 | 34.6 | 141 | >7.09 | 359 | >2.79 | 450 | >2.22 | 7.8 | >128 | > 240 | >35.0 | > 1000 | > 1000 | > 1000 | > 1000 | IC50 [1]: 3.54 ± 0.72 µM; HCT116 SI (selectivity index) [1]: 4.97
COc1cccc2c1C(=O)c1c(O)c3c(c(O)c1C2=O)C[C@@](O)(C(=O)CO)C[C@@H]3O[C@H]1C[C@H](N)[C@H](O)[C@H](C)O1 [DXR, doxorubicin, reference compound] |  |  |  |  |  |  | 0.33 | >30.3 | 0.2 | >50.0 | 0.24 | >41.7 | 0.14 | >71.4 | 0.23 | >48.4 | > 10 | > 10 | > 10 | > 10 | 
N[C@@H](Cc1ccc(N(CCCl)CCCl)cc1)C(=O)O [MPN, melphalan, reference compound] |  |  |  |  |  |  |  | >4.68 |  | >11.8 |  | >9.62 |  | >19.2 |  | >11.3 | > 200 | > 200 | > 200 | > 200 | CC50 ([4]; Ca9-22, 48 h): 42.7 µM; CC50 ([5]; HSC-2, 48 h): 17 µM; CC50 ([6]; HSC-3, 48 h): 20.8 µM; CC50 ([7]; HSC-4, 48 h): 10.4 µM; CC50 ([8]; Homo sapiens): 22.7 µM
